In paper PMC8300687, “A Fine-Tuned Lipophilicity/Hydrophilicity Ratio Governs Antibacterial Potency and Selectivity of Bifurcated Halogen Bond-Forming NBTIs” (Antibiotics, 2021):
≈ marks a conversion by molar mass, not a printed value. Read-outs that look alike come from different tables or passages of the source.

Experiments:
MRSA (QA-11.4) = test: MIC broth microdilution, MRSA QA-11.4; type: cell-based, methicillin-resistant S. aureus; conditions: Staphylococcus aureus, 20 h, resistant to cefoxitin, read-out: MIC MRSA (QA-11.4)
Description: (§1) Antimicrobial testing was carried out by the broth microdilution method in 96-well plate format following the Clinical and Laboratory Standards Institute (CLSI) guidelines and European Committee on Antimicrobial Susceptibility Testing (EUCAST) recommendations. Bacterial suspension of specific bacterial strain equivalent to 0.5 McFarland turbidity standard was diluted with cation-adjusted Mueller Hinton broth with TES (Thermo Fisher Diagnostic, Landsmeer, The Netherlands), to obtain a final inoculum of 10^5 CFU/mL. Compounds dissolved in DMSO and inoculum were mixed together and incubated for 18–20 h at 35 °C. Suspensions of Mycobacterium sp. were prepared into a tube of Middelbrook 7H9 broth supplemented with 5% OADC (Thermo Scientific, Trek Diagnostic Systems, West Sussex, UK) and incubated for at least 10 days. After incubation the minimal inhibitory concentration (MIC) values were determined by visual inspection as the lowest dilution of compounds showing no turbidity. Tetracycline was used as a positive control on every assay plate.

[1] = system: P. aeruginosa RDK 184 (DSM 939); test: MIC broth microdilution, P. aeruginosa; type: cell-based; conditions: Pseudomonas aeruginosa, DSM939; read-out: MIC P. aeruginosa RDK 184 (DSM 939)
Description: as §1

Human topoisomerase IIα = molecular target: T1, Human topoisomerase IIα (Homo sapiens, UniProt P11388); test: Human topoisomerase II Alpha Relaxation High Throughput Plate assay; type: biochemical; conditions: 0.5 h; residual activity of the enzyme at compound concentration 10 μM, mean ± SD; read-out: Human Topo II (% RA)
T1 construct: purchased Inspiralis (Norwich, UK)
Description: A Human topoisomerase II Alpha Relaxation High Throughput Plate assay kit, purchased from Inspiralis (Norwich, UK) was used to evaluate the selectivity of compounds for the bacterial enzymes over the homologous human topoisomerase II. […] Biotinylated oligonucleotide in wash buffer was immobilized onto the wells and the excess oligonucleotide was washed off with wash buffer. […] The reactions were stopped by adding the TF buffer (50 mM NaOAc (pH 4.7), 50 mM NaCl, and 50 mM MgCl2) to allow the triplex formation (biotin-oligonucleotide-plasmid) for additional 30 min. Afterward, the unbound plasmid was washed off using TF buffer, and the solution of Promega Diamond dye in T10 buffer (10 mM Tris-HCl (pH 8.0), 1 mM EDTA) was added. […] Screening was performed at inhibitor concentrations of 10 μM. Raw data were converted to mean ± SD percentage of residual activity of the enzyme obtained by two independent measurements.

[2] = system: E. faecalis DRK 057 (ATCC 29212); test: MIC broth microdilution, E. faecalis; type: cell-based; conditions: Enterococcus faecalis, ATCC29212; read-out: MIC E. faecalis DRK 057 (ATCC 29212)
Description: as §1

MRSA (QA-11.6) = test: MIC broth microdilution, MRSA QA-11.6; type: cell-based, methicillin-resistant S. aureus; conditions: Staphylococcus aureus, resistant to cefoxitin, gentamicin, sulfamethoxazole, tetracycline, read-out: MIC MRSA (QA-11.6)
Description: as §1

[3] = system: S. agalactiae RDK 047 (QA-990/02); test: MIC broth microdilution, S. agalactiae; type: cell-based; conditions: Streptococcus agalactiae; read-out: MIC S. agalactiae RDK 047 (QA-990/02)
Description: as §1

MRSA = test: MIC broth microdilution, MRSA; type: cell-based, methicillin-resistant S. aureus; conditions: Staphylococcus aureus, read-out: MIC MRSA
Description: as §1

E. coli N43 (CGSC# 5583) = test: MIC broth microdilution, E. coli N43; type: cell-based; conditions: Escherichia coli
Method in brief: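 For the mycobacterial strain, suspensions in Middelbrook 7H9 broth with 5% OADC were incubated no less than 10 days. Other strains: cation-adjusted Mueller Hinton/TES broth, 10^5 CFU/mL final, 35 °C for 18–20 h. Endpoint: no turbidity by visual inspection; tetracycline served as plate control.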

HUVEC = test: Metabolic activity assessment (cytotoxicity), HUVEC; type: cell-based; conditions: Homo sapiens, metabolic activity after 72 h treatment
Description: Cells of the HepG2 line (ATCC® HB-8065™) and HUVEC (ATCC® CRL-1730™) were cultured in Dulbecco’s Modified Eagle Medium (DMEM; Sigma-Aldrich, St. Louis, MO, USA) supplemented with 10% heat-deactivated FBS (Gibco, Grand Island, NE, USA), 2 mM L-glutamine, 100 U/mL penicillin, 100 μg/mL streptomycin (all from Sigma-Aldrich, St. Louis, MO, USA) in a humidified chamber at 37 °C and 5% CO2. The experiments were carried out on passages 7–9 for both cell lines. The tested compounds were dissolved in DMSO and further diluted in culture medium to a desired final concentration. Cells were seeded into 96-well plates at 8 × 10^4 cells/mL (100 μL/well) and incubated for 24 h to attach onto the wells. Cells were treated with 1 μM and 50 μM of each compound of interest or corresponding vehicle as control. […] The metabolic activity was assessed after 72 h treatment using the CellTiter 96 Aqueous One Solution Cell Proliferation Assay (Promega, Madison, WI, USA), in accordance with the manufacturer’s instructions. The absorbance was measured at 492 nm on an automated microplate reader BioTek Synergy HT (BioTek Instruments, Inc., Winooski, VT, USA). Data are presented as the percentage of metabolic activity of control cells stimulated with vehicle or as IC50 value (mean ± SD) from two independent experiments, each conducted in duplicate or triplicate. IC50 values were calculated by a non-linear regression model using Graph Pad Prism 7 software.

in vitro = conditions: PAMPA
Method in brief: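 Pre-coated three-layer PAMPA plate; donor in bottom well, pH 7.4 PBS acceptor on top, 4 h at 37 °C. Donor and acceptor quantified by isocratic HPLC peak areas, 100-fold diluted initial donor as external reference; permeability calculated from peak areas corrected for dilution and injection volume.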

S. pneumoniae (QA-10/02) = test: MIC broth microdilution, S. pneumoniae; type: cell-based; conditions: Streptococcus pneumoniae
Description: as §1

MRSA (QA-11.2) = test: MIC broth microdilution, MRSA QA-11.2; type: cell-based, methicillin-resistant S. aureus; conditions: Staphylococcus aureus, 20 h, resistant to cefoxitin, chloramphenicol, clindamycin, linezolid, tetracycline, thiamulin, trimethoprim, read-out: MIC MRSA (QA-11.2)
Description: as §1

E. coli D22 = test: MIC broth microdilution, E. coli D22; type: cell-based; conditions: Escherichia coli, D22; mutation in the lpxC gene that increases membrane permeability; read-out: MIC E. coli D22
Description: as §1

[4] = read-out: E. coli N43 MIC in molar
[5] = read-out: MIC E. coli N43 (CGSC# 5583)

T1 sequence (P11388 whole entry): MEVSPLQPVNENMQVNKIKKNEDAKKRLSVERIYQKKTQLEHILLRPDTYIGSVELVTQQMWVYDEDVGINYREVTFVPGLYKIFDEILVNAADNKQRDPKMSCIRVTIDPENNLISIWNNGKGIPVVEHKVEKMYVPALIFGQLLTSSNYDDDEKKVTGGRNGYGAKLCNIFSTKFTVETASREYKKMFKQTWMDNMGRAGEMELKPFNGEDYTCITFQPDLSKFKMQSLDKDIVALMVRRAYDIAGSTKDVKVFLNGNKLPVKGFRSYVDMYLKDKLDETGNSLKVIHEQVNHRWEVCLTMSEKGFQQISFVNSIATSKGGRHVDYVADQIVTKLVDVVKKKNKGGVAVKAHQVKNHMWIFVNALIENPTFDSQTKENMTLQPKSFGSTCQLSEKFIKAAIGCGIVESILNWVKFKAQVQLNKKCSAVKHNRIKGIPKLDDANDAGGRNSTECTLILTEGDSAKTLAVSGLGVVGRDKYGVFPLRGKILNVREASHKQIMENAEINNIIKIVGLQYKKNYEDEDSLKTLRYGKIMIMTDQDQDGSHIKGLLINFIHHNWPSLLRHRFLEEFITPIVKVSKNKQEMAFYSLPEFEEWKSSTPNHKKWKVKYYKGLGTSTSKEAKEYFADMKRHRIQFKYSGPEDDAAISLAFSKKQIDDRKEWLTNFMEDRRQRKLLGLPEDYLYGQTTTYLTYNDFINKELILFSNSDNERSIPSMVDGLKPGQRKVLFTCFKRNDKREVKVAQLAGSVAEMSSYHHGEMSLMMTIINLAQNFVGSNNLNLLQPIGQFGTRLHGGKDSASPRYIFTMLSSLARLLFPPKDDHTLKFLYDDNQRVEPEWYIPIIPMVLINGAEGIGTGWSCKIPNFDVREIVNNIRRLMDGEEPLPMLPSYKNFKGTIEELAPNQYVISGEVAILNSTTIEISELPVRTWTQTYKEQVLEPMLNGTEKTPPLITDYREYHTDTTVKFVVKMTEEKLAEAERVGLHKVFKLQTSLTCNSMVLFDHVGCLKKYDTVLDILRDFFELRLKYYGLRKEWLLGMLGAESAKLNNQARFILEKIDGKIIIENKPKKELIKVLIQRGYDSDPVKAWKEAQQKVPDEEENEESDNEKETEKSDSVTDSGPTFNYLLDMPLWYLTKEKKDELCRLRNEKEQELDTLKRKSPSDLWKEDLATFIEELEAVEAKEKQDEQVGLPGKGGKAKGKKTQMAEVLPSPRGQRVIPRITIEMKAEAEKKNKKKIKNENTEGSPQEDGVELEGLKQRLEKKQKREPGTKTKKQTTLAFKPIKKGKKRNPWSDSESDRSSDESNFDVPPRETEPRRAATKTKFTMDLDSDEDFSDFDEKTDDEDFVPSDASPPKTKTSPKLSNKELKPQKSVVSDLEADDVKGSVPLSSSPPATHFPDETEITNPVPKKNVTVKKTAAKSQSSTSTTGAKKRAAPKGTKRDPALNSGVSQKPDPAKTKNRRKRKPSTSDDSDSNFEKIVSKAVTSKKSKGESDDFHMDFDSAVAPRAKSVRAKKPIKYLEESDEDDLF

Compound | MIC (MRSA (QA-11.4)) | MIC [1] | remaining activity at 10 µM (Human topoisomerase IIα) | MIC [2] | MIC (MRSA (QA-11.6)) | MIC [3] | MIC (MRSA) | MIC (E. coli N43 (CGSC# 5583); [4]) | MIC (E. coli N43 (CGSC# 5583); [5]) | IC50 (HUVEC) | Papp at 4 h (in vitro) | Papp at 4 h (in vitro; pH 7.4) | MIC (S. pneumoniae (QA-10/02)) | MIC (MRSA (QA-11.2)) | MIC (E. coli D22)
COc1ccc2nccc(CCN3CCC(NCc4ccc(C(F)(F)F)nc4)CC3)c2n1 [Compound 21, 1-(2-(6-Methoxy-1,5-naphthyridin-4-yl)ethyl)-N-((6-(trifluoromethyl)pyridin-3-yl)methyl)piperidin-4-amine] | 1 µg/mL (≈ 2.24 µM) | > 128 µg/mL | 95.5 ± 2.39% | 2 µg/mL (≈ 4.49 µM) | 0.5 µg/mL (≈ 1.12 µM) | 4 µg/mL (≈ 8.98 µM) | 0.5 µg/mL (≈ 1.12 µM) | 2.25 µM | 1 µg/mL | > 50 µM | > 2.7 ×10⁻⁶ cm/s | 8.3 ×10⁻⁶ cm/s | 1 µg/mL (≈ 2.24 µM) | 0.5 µg/mL (≈ 1.12 µM) | 4 µg/mL (≈ 8.98 µM)
COc1ccc(CNC2CCN(CCc3ccnc4ccc(OC)nc34)CC2)cn1 [Compound 22, 1-(2-(6-Methoxy-1,5-naphthyridin-4-yl)ethyl)-N-((6-methoxypyridin-3-yl)methyl)piperidin-4-amine] | 2 µg/mL (≈ 4.91 µM) | > 128 µg/mL | 97 ± 6.94% | 2 µg/mL (≈ 4.91 µM) | 2 µg/mL (≈ 4.91 µM) | 1 µg/mL (≈ 2.45 µM) | 1 µg/mL (≈ 2.45 µM) | 2.38 µM | 1 µg/mL | > 50 µM | > 2.7 ×10⁻⁶ cm/s | 8.2 ×10⁻⁶ cm/s | 1 µg/mL (≈ 2.45 µM) | 2 µg/mL (≈ 4.91 µM) | 4 µg/mL (≈ 9.82 µM)
